In this test the test system is CD4^+ T-lymphocytes. Put plainly: Cytokine mRNA expression profile after stimulation of CD4+ T-lymphocytes with short peptides from QR-40 pulsed on HLA-DR7 EBV cells. The class given is cell-based, human. From the text:
The total RNA of the clones or cell lines was isolated from 1×10^6 cells by using the Rnagent kit (Promega, Madison, Wis., United States). The total RNA was converted to single stranded cDNA by using an oligo (dT) primer (Amersham Pharmacia Biotech, Orsay, France) and the reverse transcriptase of the avian myeloblastosis virus, in conformance with the manufacturer's specifications (Promega).
HY-specific CD4^+ T-lymphocytes were stimulated, each with […] EBV-B LCL transduced with the HY gene. The proliferation and production of IFN-γ were measured by the incorporation of ^3H-[methyl-thymidine] on day 3, and ELISA on day 1. To map the precise T-lymphocyte epitope restricted to the MHC class II, the inventors synthesized several long peptides with a potential bond with DRB1*0701 encoded in the RPS4Y regions which are different from RPS4X, based on several databases for MHC peptide binding, such as SYFPEITHI, Net-MHC, Propred and HotSpot Hunter. These peptides were tested at various concentrations: from 100 μM to 10 nM, using […] EBV-B-LCLs that express the HLA-DRB1*0701 molecule in the form of APC. The short peptide in question was identified using a series of peptides of 15 amino acids, also identified from these databases, and which are present in the long peptide which induces a positive response.
The inventors were therefore able to identify TGKIINFIKFDTGNL (SEQ ID NO: 1) as the HY peptide epitope recognized by the CD4^+ T-lymphocytes (FIG. 6). […] It is interesting to note that the cloned T-lymphocytes presented the same cytokine profile as the T-lymphocyte cell line.

Setting [1] is: female HLA-DR7 EBV cells pulsed with peptide.

“TGKIINFIKFDTGNL (peptide TL15) [HY epitopic 15-mer peptide from RPS4Y presented by HLA-DR7]”: the “stimulation of the CD4+ T-lymphocytes by 15-mer peptides in QR-40 (in words)” value (Table 9) is listed as “stimulated the cells”. The “FoxP3 mRNA response (in words)” value (at 1 μM) was “highest FoxP3 mRNA response”. Under setting [1], the “IFNγ mRNA induction (in words)” value is “specific IFNγ induction” and the “IL-2 mRNA expression (in words)” value is listed as “low IL-2 mRNA expression”. Also, for the setting “peptide 1 μM”, the “FoxP3/CD3ε mRNA ratio” value came to 0.42, the “IFNγ/CD3ε mRNA ratio” value was found to be 9.91 and the “IL2/CD3ε mRNA ratio” value is recorded as 0.06. In addition, under “peptide 10 μM”, the “FoxP3/CD3ε mRNA ratio” value was 0.44, the “IFNγ/CD3ε mRNA ratio” value is 12.63 and the “IL2/CD3ε mRNA ratio” value came out at 0.23.

For the sequence “TGNVCMVIAGANLGRVG (Peptide TG17-2) [short peptide tested with the QR-40 peptides]”, where the note is “peptide 1 μM”, the “FoxP3/CD3ε mRNA ratio” value was 0.23, the “IFNγ/CD3ε mRNA ratio” value is given as 0.009 and the “IL2/CD3ε mRNA ratio” value worked out at 0.0047. In addition, under “peptide 10 μM”, the “FoxP3/CD3ε mRNA ratio” value turned out to be 0.3, the “IFNγ/CD3ε mRNA ratio” value stood at 0.5 and the “IL2/CD3ε mRNA ratio” value was found to be 0.01.

As for “GKIINFIKFDTGNLCMV (Peptide GV17) [short peptide from peptide QR-40]”, under “peptide 1 μM”, the “FoxP3/CD3ε mRNA ratio” value came out at 0.12, the “IFNγ/CD3ε mRNA ratio” value came out at 0.12 and the “IL2/CD3ε mRNA ratio” value worked out at 0.02. In addition, for the setting “peptide 10 μM”, the “FoxP3/CD3ε mRNA ratio” value amounted to 0.27, the “IFNγ/CD3ε mRNA ratio” value was 0.82 and the “IL2/CD3ε mRNA ratio” value was found to be 0.02.

As to “TGNLCMVIGGANLGRVG (Peptide TG17-1) [short peptide from peptide QR-40]”, under “peptide 1 μM”, the “FoxP3/CD3ε mRNA ratio” value was 0.12, the “IFNγ/CD3ε mRNA ratio” value stood at 0.11 and the “IL2/CD3ε mRNA ratio” value is 0.006. Also, under “peptide 10 μM”, the “FoxP3/CD3ε mRNA ratio” value stood at 0.32, the “IFNγ/CD3ε mRNA ratio” value came out at 0.11 and the “IL2/CD3ε mRNA ratio” value is on record as 0.02.

The record behind these values is US20140308261A1, “HLA-DR7 HY epitope and method for treating leukaemia” (Etablissement Français du Sang, priority 2011, published 2014).
